According to patent US10131669B2, “Pyrazolopyrimidine compounds” (Pfizer Inc., priority 2014, dated 2018):
Where a name gives a salt, the structure may show the parent alone. Read-outs that look alike come from different tables or passages of the source.

Columns and labels:
Assay type in all cases: biochemical
[1] = target: T1, Human PDE4A3 (Homo sapiens, UniProt P27815); assay: PDE4A3 Scintillation Proximity Assay (SPA), inhibition of enzyme activity; settings: geometric mean of 2-7 determinations unless otherwise indicated (b: ≥8 determinations; c: single determination), 1 μM cAMP, 30 min at 25° C., read-out: Human PDE4A FL
T1 construct: His6 (N); FLAG (C); made in house; host or cells: insect cells (baculovirus, pFastBac)
T1 sequence (P27815 2-825 isoform P27815-6): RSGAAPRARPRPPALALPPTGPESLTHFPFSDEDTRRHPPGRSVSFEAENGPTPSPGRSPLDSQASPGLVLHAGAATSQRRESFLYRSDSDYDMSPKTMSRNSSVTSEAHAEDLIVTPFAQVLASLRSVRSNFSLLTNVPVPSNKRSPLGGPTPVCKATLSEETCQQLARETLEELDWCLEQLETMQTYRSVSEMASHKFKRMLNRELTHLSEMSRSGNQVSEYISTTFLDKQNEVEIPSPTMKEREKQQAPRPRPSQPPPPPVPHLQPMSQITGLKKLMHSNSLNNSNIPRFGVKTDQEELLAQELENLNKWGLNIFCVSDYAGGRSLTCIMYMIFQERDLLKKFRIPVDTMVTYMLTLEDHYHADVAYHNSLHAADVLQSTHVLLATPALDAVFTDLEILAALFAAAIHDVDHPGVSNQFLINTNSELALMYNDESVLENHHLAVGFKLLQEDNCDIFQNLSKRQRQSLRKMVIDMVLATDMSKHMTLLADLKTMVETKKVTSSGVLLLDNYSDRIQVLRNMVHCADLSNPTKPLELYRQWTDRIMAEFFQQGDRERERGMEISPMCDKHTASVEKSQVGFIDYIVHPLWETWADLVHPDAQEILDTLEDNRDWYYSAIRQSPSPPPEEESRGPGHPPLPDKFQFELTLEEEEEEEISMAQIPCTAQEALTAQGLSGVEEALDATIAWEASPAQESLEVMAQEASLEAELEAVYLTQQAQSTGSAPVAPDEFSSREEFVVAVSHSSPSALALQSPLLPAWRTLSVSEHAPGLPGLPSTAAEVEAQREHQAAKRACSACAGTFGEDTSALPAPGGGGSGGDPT
How it was run: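 Human PDE4A3 (aa 2–825, His6/FLAG-tagged, insect-cell expressed) at 80 pM hydrolyses 1 μM cAMP including 20 nM 3H-cAMP, ~20% conversion. Buffer is 50 mM Tris pH 7.5, 1.3 mM MgCl2, 0.01% Brij. Incubated 30 min at 25 °C with inhibitor range, stopped with yttrium silicate SPA beads, read after 8 h settling.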

[2] = target: T2, human PDE4D3 (Homo sapiens, UniProt Q08499); assay: PDE4D3 Scintillation Proximity Assay (SPA), inhibition of enzyme activity
T2 construct: His6 (C); made in house; host or cells: insect cells (baculovirus, pFastBac)
T2 sequence (Q08499 186-808): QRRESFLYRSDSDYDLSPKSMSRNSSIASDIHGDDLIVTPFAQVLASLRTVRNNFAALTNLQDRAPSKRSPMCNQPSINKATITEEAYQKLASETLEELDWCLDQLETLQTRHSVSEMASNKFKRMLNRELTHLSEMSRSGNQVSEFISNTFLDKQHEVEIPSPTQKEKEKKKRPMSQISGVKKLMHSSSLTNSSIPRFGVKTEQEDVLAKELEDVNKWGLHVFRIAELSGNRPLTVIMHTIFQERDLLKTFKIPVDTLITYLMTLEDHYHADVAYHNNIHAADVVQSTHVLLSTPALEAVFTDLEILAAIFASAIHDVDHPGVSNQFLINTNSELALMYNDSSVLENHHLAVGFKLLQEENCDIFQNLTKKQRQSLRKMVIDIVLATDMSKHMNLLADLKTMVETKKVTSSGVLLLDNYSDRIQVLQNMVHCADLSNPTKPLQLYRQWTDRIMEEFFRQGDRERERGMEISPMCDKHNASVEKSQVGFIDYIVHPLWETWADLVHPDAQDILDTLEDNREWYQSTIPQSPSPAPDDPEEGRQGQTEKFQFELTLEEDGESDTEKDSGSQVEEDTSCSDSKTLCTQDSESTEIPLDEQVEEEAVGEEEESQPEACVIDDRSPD
How it was run: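 Recombinant enzyme from insect cells, Ni-NTA and Q Sepharose purified, used at 10 pM in 50 mM Tris pH 7.5, 1.3 mM MgCl2, 0.01% Brij. Substrate 1 μM cAMP with 3H-cAMP tracer, ~20% conversion, inhibitor range, 30 min at 25°C. Stopped with yttrium silicate SPA beads and scintillation read.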

[3] = target: T3, Human PDE4C1 (Homo sapiens, UniProt Q08493); assay: PDE4C1 Scintillation Proximity Assay (SPA), inhibition of enzyme activity; settings: geometric mean of 2-7 determinations unless otherwise indicated (b: ≥8 determinations; c: single determination), 1 μM cAMP, 30 min at 25° C., read-out: Human PDE4C FL
T3 construct: His6 (N); FLAG (C); made in house; host or cells: insect cells (baculovirus, pFastBac)
T3 sequence (Q08493 2-712): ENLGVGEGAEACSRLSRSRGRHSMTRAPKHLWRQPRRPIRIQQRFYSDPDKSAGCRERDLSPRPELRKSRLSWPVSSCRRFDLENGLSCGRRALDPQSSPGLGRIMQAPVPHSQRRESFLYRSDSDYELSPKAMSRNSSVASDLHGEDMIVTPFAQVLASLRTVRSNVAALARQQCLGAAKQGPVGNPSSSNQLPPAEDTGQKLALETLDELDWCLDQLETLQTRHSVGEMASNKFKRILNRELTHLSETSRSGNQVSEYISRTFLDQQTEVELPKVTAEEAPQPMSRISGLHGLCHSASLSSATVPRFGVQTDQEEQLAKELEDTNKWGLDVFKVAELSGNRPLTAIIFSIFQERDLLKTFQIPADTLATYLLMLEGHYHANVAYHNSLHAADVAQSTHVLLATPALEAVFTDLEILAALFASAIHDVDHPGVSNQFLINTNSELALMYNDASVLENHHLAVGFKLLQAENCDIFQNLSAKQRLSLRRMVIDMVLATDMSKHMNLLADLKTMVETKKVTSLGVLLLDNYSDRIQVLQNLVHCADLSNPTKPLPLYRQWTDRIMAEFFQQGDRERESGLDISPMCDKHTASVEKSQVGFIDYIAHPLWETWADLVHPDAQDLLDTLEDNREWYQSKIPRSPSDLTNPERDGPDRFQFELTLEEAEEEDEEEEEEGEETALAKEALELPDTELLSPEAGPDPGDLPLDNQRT
How it was run: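 Human recombinant FLAG/His-purified PDE4C1 from insect cells at 40 pM, with 1 μM cAMP (3H-cAMP tracer) in Tris pH 7.5, 1.3 mM MgCl2, 0.01% Brij, ~20% substrate turnover. Incubation 30 min at 25° C with a range of inhibitor concentrations. Stopped with yttrium silicate SPA beads and read by scintillation after 8 h settling.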

[4] = target: T4, Human PDE4B1 (Homo sapiens, UniProt Q07343, S133E/S654A/S659A/S661A); assay: PDE4B1 Scintillation Proximity Assay (SPA), inhibition of enzyme activity
T4 construct: His6 (N); thrombin cleavage site (N); made in house; host or cells: insect cells (baculovirus, pFastBac)
T4 sequence (Q07343 122-736 S133E/S654A/S659A/S661A): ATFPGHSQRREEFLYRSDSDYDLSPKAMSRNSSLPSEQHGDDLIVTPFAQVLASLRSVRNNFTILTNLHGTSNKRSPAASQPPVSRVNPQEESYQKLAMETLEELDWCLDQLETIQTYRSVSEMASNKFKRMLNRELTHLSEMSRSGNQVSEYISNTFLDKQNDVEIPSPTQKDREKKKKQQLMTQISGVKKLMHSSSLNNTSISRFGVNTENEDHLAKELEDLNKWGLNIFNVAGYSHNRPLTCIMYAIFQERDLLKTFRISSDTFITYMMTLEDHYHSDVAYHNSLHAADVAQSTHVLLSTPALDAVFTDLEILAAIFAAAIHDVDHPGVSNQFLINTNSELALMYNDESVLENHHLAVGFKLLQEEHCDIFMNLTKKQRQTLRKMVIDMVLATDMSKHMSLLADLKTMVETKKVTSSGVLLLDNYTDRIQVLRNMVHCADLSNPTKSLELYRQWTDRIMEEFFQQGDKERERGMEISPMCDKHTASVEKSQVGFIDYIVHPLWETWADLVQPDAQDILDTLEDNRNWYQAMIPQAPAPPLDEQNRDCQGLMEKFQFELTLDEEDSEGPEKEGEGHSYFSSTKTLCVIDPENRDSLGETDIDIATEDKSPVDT
How it was run: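 His-tagged human PDE4B1 expressed in insect cells and purified by Ni-NTA and Source 15Q was assayed in 50 mM Tris pH 7.5, 1.3 mM MgCl2, 0.01% Brij. The substrate was 1 μM cAMP with ³H-cAMP tracer, at about 20% conversion, for 30 min at 25 °C. Yttrium silicate SPA beads stopped the reaction; counts were read after 8 h settling.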

[5] = geometric mean of 2-7 determinations unless otherwise indicated (b: ≥8 determinations; c: single determination), 1 μM cAMP, 30 min at 25° C., read-out: Human PDE4D FL, IC50
[6] = geometric mean of 2-7 determinations unless otherwise indicated (b: ≥8 determinations; c: single determination), 1 μM cAMP, 30 min at 25° C., read-out: Human PDE4B FL, IC50

Row | SMILES | IC50 [1] | IC50 [2, 5] | IC50 [3] | IC50 [4, 6] | IC50 [2] | IC50 [4]
1 | O=C(NC1CC1)c1nn2cccnc2c1-c1ccc(Cl)c(F)c1F [Example 71, 3-(4-chloro-2,3-difluorophenyl)-N-cyclopropylpyrazolo[1,5-a]pyrimidine-2-carboxamide] | 0.0102 µM | 0.797 µM | 0.0111 µM | 0.0255 µM | – | –
2 | Cc1cc(Cl)ccc1-c1c(C(=O)N2CCC2)nn2cccnc12 [Example 21, azetidin-1-yl[3-(4-chloro-2-methylphenyl)pyrazolo[1,5-a]pyrimidin-2-yl]methanone] | 0.0166 µM | 4.83 µM | 0.0565 µM | 0.0446 µM | – | –
3 | O=C(c1nn2cccnc2c1-c1ccc(Cl)cc1)N1CCC1 [Example 1, Azetidin-1-yl[3-(4-chlorophenyl)pyrazolo[1,5-a]pyrimidin-2-yl]methanone] | 0.0179 µM | > 9.3 µM | 0.0842 µM | 0.0527 µM | – | –
4 | CCNC(=O)c1nn2cccnc2c1-c1cc(F)c(Cl)cc1F [Example 19, 3-(4-chloro-2,5-difluorophenyl)-N-ethylpyrazolo[1,5-a]pyrimidine-2-carboxamide] | 0.0113 µM | 2.11 µM | 0.0364 µM | 0.0414 µM | – | –
5 | O=C(NC1CC1)c1nn2cc(F)cnc2c1-c1ccc2ocnc2c1 [Example 65, 3-(1,3-benzoxazol-5-yl)-N-cyclopropyl-6-fluoropyrazolo[1,5-a]pyrimidine-2-carboxamide] | 0.057 µM | 1.16 µM | 0.128 µM | 0.059 µM | – | –
6 | O=C(NC1CC1)c1nn2cccnc2c1-c1cc(F)c(Cl)c(F)c1 [Example 33, 3-(4-chloro-3,5-difluorophenyl)-N-cyclopropylpyrazolo[1,5-a]pyrimidine-2-carboxamide, hydrochloride salt] | 0.0926 µM | 0.408 µM | 0.17 µM | 0.0033 µM | – | –
7 | CC1(NC(=O)c2nn3cccnc3c2-c2ccc(Cl)cc2)CC1 [Example 11, 3-(4-chlorophenyl)-N-(1-methylcyclopropyl)pyrazolo[1,5-a]pyrimidine-2-carboxamide] | 0.0808 µM | > 10.7 µM | 0.276 µM | 0.0624 µM | – | –
8 | Cc1cc(Cl)ccc1-c1c(C(=O)NC2CC2)nn2cc(F)cnc12 [Example 55, 3-(4-chloro-2-methylphenyl)-N-cyclopropyl-6-fluoropyrazolo[1,5-a]pyrimidine-2-carboxamide] | 0.00875 µM | 1.06 µM | 0.0285 µM | 0.0305 µM | – | –
9 | CN(C(=O)c1nn2cccnc2c1-c1ccc(Cl)cc1)C1CC1 [Example 35, 3-(4-chlorophenyl)-N-cyclopropyl-N-methylpyrazolo[1,5-a]pyrimidine-2-carboxamide, hydrochloride salt] | 1.11 µM | > 30 µM | 0.71 µM | 1.86 µM | – | –
10 | O=C(c1nn2cc(F)cnc2c1-c1ccc(Cl)cc1)N1CCC1 [Example 9, Azetidin-1-yl[3-(4-chlorophenyl)-6-fluoropyrazolo[1,5-a]pyrimidin-2-yl]methanone, Formate Salt] | 0.0167 µM | – | 0.0553 µM | – | 3.71 µM | 0.0344 µM
11 | N#Cc1ccc(-c2c(C(=O)NC3CC3)nn3cccnc23)cn1 [Example 44, 3-(6-cyanopyridin-3-yl)-N-cyclopropylpyrazolo[1,5-a]pyrimidine-2-carboxamide] | 0.192 µM | > 11.9 µM | 0.898 µM | 0.358 µM | – | –
12 | Cc1cc(C#N)c(F)cc1-c1c(C(=O)N2CCC2)nn2cccnc12 [Example 69, 4-[2-(azetidin-1-ylcarbonyl)pyrazolo[1,5-a]pyrimidin-3-yl]-2-fluoro-5-methylbenzonitrile] | 0.00337 µM | 0.0929 µM | 0.0361 µM | 0.0173 µM | – | –
13 | O=C(NC1CC1)c1nn2cc(F)cnc2c1-c1ccc(Cl)c(F)c1F [Example 58, 3-(4-chloro-2,3-difluorophenyl)-N-cyclopropyl-6-fluoropyrazolo[1,5-a]pyrimidine-2-carboxamide] | 0.00404 µM | 0.43 µM | 0.009 µM | 0.0201 µM | – | –
14 | O=C(NC1CC1)c1nn2cccnc2c1-c1cccc(Cl)c1 [Example 31, 3-(3-chlorophenyl)-N-cyclopropylpyrazolo[1,5-a]pyrimidine-2-carboxamide, hydrochloride salt] | 0.0362 µM | 2.12 µM | 0.106 µM | 0.051 µM | – | –
15 | Cc1cc(Cl)c(F)cc1-c1c(C(=O)NC2CC2)nn2cc(F)cnc12 [Example 64, 3-(4-chloro-5-fluoro-2-methylphenyl)-N-cyclopropyl-6-fluoropyrazolo[1,5-a]pyrimidine-2-carboxamide] | 0.001 µM | 0.0526 µM | 0.00447 µM | 0.002 µM | – | –
16 | CC1CC1NC(=O)c1nn2cccnc2c1-c1ccc(Cl)cc1 (centres unmarked) [Example 34, 3-(4-chlorophenyl)-N-(2-methylcyclopropyl)pyrazolo[1,5-a]pyrimidine-2-carboxamide] | 0.12 µM | > 12.3 µM | 0.449 µM | 0.138 µM | – | –
17 | Cc1ccc(-c2c(C(=O)NC3CC3)nn3cccnc23)cc1F [Example 70, N-cyclopropyl-3-(3-fluoro-4-methylphenyl)pyrazolo[1,5-a]pyrimidine-2-carboxamide] | 0.00809 µM | 0.68 µM | 0.017 µM | 0.0236 µM | – | –
18 | CCNC(=O)c1nn2cccnc2c1-c1cc(F)c(Cl)cc1C [Example 17, 3-(4-chloro-5-fluoro-2-methylphenyl)-N-ethylpyrazolo[1,5-a]pyrimidine-2-carboxamide] | 0.00846 µM | 0.967 µM | 0.0798 µM | 0.021 µM | – | –
19 | N#Cc1ccc(-c2c(C(=O)N3CCC3)nn3cc(F)cnc23)cc1F [Example 68, 4-[2-(azetidin-1-ylcarbonyl)-6-fluoropyrazolo[1,5-a]pyrimidin-3-yl]-2-fluorobenzonitrile] | 0.00331 µM | 0.261 µM | 0.0329 µM | 0.0168 µM | – | –
20 | O=C(NC12CC(C1)C2)c1nn2cccnc2c1-c1ccc(Cl)cc1 [Example 27, N-(bicyclo[1.1.1]pent-1-yl)-3-(4-chlorophenyl)pyrazolo[1,5-a]pyrimidine-2-carboxamide] | 0.0558 µM | 6.2 µM | 0.217 µM | 0.124 µM | – | –
21 | Cc1cc(Cl)c(F)cc1-c1c(C(=O)NC2CC2)nn2cccnc12 [Example 25, 3-(4-chloro-5-fluoro-2-methylphenyl)-N-cyclopropylpyrazolo[1,5-a]pyrimidine-2-carboxamide] | 0.00535 µM | 0.283 µM | 0.0174 µM | 0.00961 µM | – | –
22 | O=C(NC1CC1)c1nn2cccnc2c1-c1ccc2ncoc2c1 [Example 43, 3-(1,3-benzoxazol-6-yl)-N-cyclopropylpyrazolo[1,5-a]pyrimidine-2-carboxamide] | 0.146 µM | > 14.4 µM | 0.178 µM | 0.221 µM | – | –
23 | CC(C)NC(=O)c1nn2cccnc2c1-c1ccc(Cl)cc1 [Example 26, 3-(4-chlorophenyl)-N-(propan-2-yl)pyrazolo[1,5-a]pyrimidine-2-carboxamide] | 0.411 µM | 4.91 µM | 0.626 µM | 0.488 µM | – | –
24 | N#Cc1ccc(-c2c(C(=O)N3CCC3)nn3cccnc23)c(F)c1 [Example 75, 4-[2-(azetidin-1-ylcarbonyl)pyrazolo[1,5-a]pyrimidin-3-yl]-3-fluorobenzonitrile] | 0.745 µM | > 28 µM | 0.292 µM | 0.377 µM | – | –
25 | Cc1cc(Cl)c(F)cc1-c1c(C(=O)N2CCC2)nn2cccnc12 [Example 61, azetidin-1-yl[3-(4-chloro-5-fluoro-2-methylphenyl)pyrazolo[1,5-a]pyrimidin-2-yl]methanone] | 0.002 µM | 0.098 µM | 0.02 µM | 0.008 µM | – | –
26 | O=C(NC1CC1)c1nn2cccnc2c1-c1cc(F)c(Cl)cc1F [Example 47, 3-(4-chloro-2,5-difluorophenyl)-N-cyclopropylpyrazolo[1,5-a]pyrimidine-2-carboxamide] | 0.00469 µM | 0.819 µM | 0.0139 µM | 0.0244 µM | – | –
